One data set concerns P-gp (MDR1). Description: MDCK-MDR1 assay (permeability, efflux ratio). Format: in vitro ADME. Conditions: dog, Papp BA/Papp AB. As for the experimental part:
The permeability of the test compounds was assessed in MDCK-MDR1 cells that were cultured to confluency (4-6 days) in a 96 transwell plate. Test compounds were diluted with the transport buffer (HBSS+1% BSA) to a concentration of 0.5 μM and applied to the apical or basolateral side of the cell monolayer. Permeation of the test compounds from A to B direction or B to A direction was determined in triplicate over a 60-minute incubation time at 37° C. and 5% CO2 with a relative humidity of 95%. Test compounds were quantified by LC-MS/MS analysis based on the peaks area ratios of analyte/IS in both the receiver and donor wells of the transwell plate.
The apparent permeability coefficient Papp (cm/s) was calculated using the equation: […]
Where dCr/dt is the cumulative concentration of compound in the receiver chamber as a function of time (μM/s); Vr is the solution volume in the receiver chamber (0.05 mL on the apical side; 0.25 mL on the basolateral side); A is the surface area for the transport, i.e. 0.0804 cm^2 for the area of the monolayer; CO is the initial concentration in the donor chamber (μM).
Compounds are classified Pgp substrates when efflux ratio (Papp BA/Papp AB) is ≥2.

A short description of data set [1]: Clearance in microsomes, dog. Format: in vitro ADME. The note with it: 1 microM, read-out: CLint, Dog (L/h/kg) ± SD (converted). The text has this:
(§1) Deuterated compounds were compared to their non-deuterated parent counterparts to determine the impact of deuteration on clearance results

The next data set deals with BACE1 (Homo sapiens, UniProt P56817). Put plainly: BACE1 binding assay (SPA-based). Details: biotin (biotinylated form); made in house; host or cells: Freestyle HEK293 cells. The note with it: pH 4.5, 10 nM radioligand. As for the experimental part: The binding assay was performed as SPA-based assay using a biotinylated form of human BACE1 recombinantly expressed and subsequently purified from Freestyle HEK293 cells. The binding assay was run in a 50 mM sodium acetate buffer, pH 4.5 containing 50 mM NaCl and 0.03% Tween-20 in white clear bottom 384 plates (Corning #3653). […] The plates were incubated for one hour at room temperature and counted in a Wallac Trilux counter. Total and non-specific binding were determined using buffer and 1 μM (final concentration) of the high affinity BACE1 reference inhibitor (S)-6-[3-chloro-5-(5-prop-1-ynyl-pyridin-3-yl)-thiophen-2-yl]-2-imino-3,6-dimethyl-tetrahydro-pyrimidin-4-one, respectively. For each test compound, a IC50 value (the concentration mediating 50% inhibition of the specific binding of the radioligand) was determined from concentration-response curve and used to calculate the Ki from the equation Ki=IC50/(1+L/Kd), where L and Kd are the final concentration of the radioligand used in the assay and the dissociation constant of the radioligand, respectively. The Kd of the radioligand was determined from saturation binding experiments.
Chain of BACE1 (P56817 46-501): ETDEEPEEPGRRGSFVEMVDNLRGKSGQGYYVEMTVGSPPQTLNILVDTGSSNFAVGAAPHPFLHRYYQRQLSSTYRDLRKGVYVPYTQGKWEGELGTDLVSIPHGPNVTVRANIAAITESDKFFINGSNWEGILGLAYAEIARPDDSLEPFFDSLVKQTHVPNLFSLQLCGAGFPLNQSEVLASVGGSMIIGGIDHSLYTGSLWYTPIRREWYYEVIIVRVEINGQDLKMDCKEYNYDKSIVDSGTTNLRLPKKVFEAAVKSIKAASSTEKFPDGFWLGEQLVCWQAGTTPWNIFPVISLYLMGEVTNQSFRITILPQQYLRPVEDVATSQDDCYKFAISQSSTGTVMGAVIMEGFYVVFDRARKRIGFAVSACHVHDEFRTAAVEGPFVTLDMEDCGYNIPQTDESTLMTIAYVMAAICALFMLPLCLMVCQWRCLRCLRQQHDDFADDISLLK

Data set [2] in a line: Clearance in hepatocytes, human. Format: in vitro ADME. Conditions: read-out: CLint, Human (L/h/kg) ± SD (converted).
Text: as §1

The nature of data set [3]: Clearance in microsomes, cyno. Conditions: cynomolgus monkey, 1 microM, read-out: CLint, Cyno (L/h/kg) ± SD (converted). Format: in vitro ADME.
Text: as §1

Data set [4] can be described thus: Clearance in hepatocytes, cyno. Conditions: cynomolgus monkey, read-out: CLint, Cyno (L/h/kg) ± SD (converted). Format: in vitro ADME.
Text: as §1

What is called efflux ratio is a quotient of directional permeabilities that is used to spot active efflux. Broadly, the pKi is the negative decadic logarithm of the Ki, by convention in mol/L.

pKi: −log10 of the molar value. Bounds are passed on as bounds.

On to `[2H]C([2H])([2H])Oc1cnc(C(=O)Nc2ccc(F)c([C@]3(C)CC[C@@](F)(CF)C(N)=N3)c2)cn1` [Example 1, N-(3-((2S,5S)-6-amino-5-fluoro-5-(fluoromethyl)-2-methyl-2,3,4,5-tetrahydropyridin-2-yl)-4-fluorophenyl)-5-(methoxy-d3)pyrazine-2-carboxamide], for which the efflux ratio at 60 min, 0.5 μM in the data set on P-gp (MDR1) stood at 1.39. Further, the CLint scaled at 1 µM is 5 L/h/kg in data set [1], less than 0.1 L/h/kg in data set [2] (1 microM), 10 L/h/kg in data set [3] and 20 L/h/kg in data set [4] (1 microM). Moreover, the pKi at BACE1 is 7.77. Also, the values for the CLint scaled at 0.1 µM in data set [2] (0.1 microM) and in data set [4] (0.1 microM) were less than 0.1 L/h/kg and 75 L/h/kg, respectively. Also, the CLint scaled at 0.3 µM in data set [2] (0.3 microM) was less than 0.1 L/h/kg; in data set [4] (0.3 microM) it was 74 L/h/kg.

(Values after US20180186769A1, “6-AMINO-5-FLUORO-5-(FLUOROMETHYL)-2,3,4,5-TETRAHYDROPYRIDIN-2-YL-PHENYL-5-(METHOXY-D3)-PYRAZINE-2-CARBOXAMIDES AND FLUORINATED DERIVATIVES THEREOF AS BACE1 INHIBITORS” (H. Lundbeck A/S, priority 2016, published 2018).)
